Reference: ChEMBL document CHEMBL2163212, “Antivirals targeting influenza A virus” (J Med Chem, 2012)

What was measured:
Influenza A virus = assay: Antiviral activity against Influenza A virus containing Matrix protein 2 V27A mutant by plaque reduction assay; format: functional, organism-based
Matrix protein 2 = Matrix protein 2 (Influenza A virus, UniProt P06821, V27A); assay: Inhibition of Influenza A virus Matrix protein 2 V27A mutant

## CN1CCC2(C1)C1CC3CC(C1)CC2C3 (configuration not stated) [SPIROAMANTADINE]
Influenza A virus
  IC50: 1 µM
Matrix protein 2
  IC50: 0.3 µM
